From ChEMBL document CHEMBL1144278, “A new bactericidal lead structure for the protection of materials” (Bioorg Med Chem Lett, 2005)
≈ marks a conversion by molar mass, not a printed value.

Legend:
[1] = Half life period was determined; format: ADME; details: pH 9, 50 °C
[2] = system: Pseudomonas aeruginosa; assay: Minimum inhibitory concentration against Pseudomonas aeruginosa NCIB 6749 was determined in chem. def. medium; format: functional
[3] = system: Pseudomonas aeruginosa; assay: Minimum inhibitory concentration against Pseudomonas aeruginosa NCIB 6749 was determined in complex medium; format: functional
[4] = system: Bacteria; assay: Minimum inhibitory concentration against Corynebacterium was determined in agar medium; format: functional
[5] = system: Alcaligenes faecalis; assay: Minimum inhibitory concentration against Alcaligenes faecalis was determined in agar medium; format: functional
[6] = system: Pseudomonas aeruginosa; assay: Minimum inhibitory concentration against Pseudomonas aeruginosa NCIB 12201 was determined in agar medium; format: functional
[7] = system: Bacillus subtilis; assay: Minimum inhibitory concentration against Bacillus subtilis; format: functional
[8] = system: Pseudomonas aeruginosa; assay: Minimum inhibitory concentration against Pseudomonas aeruginosa ATCC 15442 was determined in agar medium; format: functional
[9] = system: Pseudomonas aeruginosa; assay: Minimum inhibitory concentration against Pseudomonas aeruginosa NCIB 6749 was determined in agar medium; format: functional
[10] = Lethal dose in rat; format: toxicity; details: in vivo
[11] = Half life periof was determined; format: ADME

| SMILES | MIC [2] | MIC [3] | also measured |
| --- | --- | --- | --- |
| CCCC(=O)N(C(=O)CCC)c1onc2c1CCC2 | – | – | half-life [1]: 0.25 days |
| O=C(OCCBr)N(C(=O)OCCBr)c1onc2c1CCC2 | 10 µg/mL (≈ 23.5 µM) | 5 µg/mL (≈ 11.7 µM) | – |
| CCCCOC(=O)N(C(=O)OCCCC)c1onc2c1CCC2 | 10 µg/mL (≈ 30.8 µM) | 10 µg/mL (≈ 30.8 µM) | – |
| O=C(Nc1onc2c1CCC2)C(F)(F)F | – | – | half-life [1]: 4.38 days |
| O=C(OCCCl)N(C(=O)OCCCl)c1onc2c1CCC2 | 10 µg/mL (≈ 29.7 µM) | 5 µg/mL (≈ 14.8 µM) | – |
| CC(C)COC(=O)N(C(=O)OCC(C)C)c1onc2c1CCC2 | 10 µg/mL (≈ 30.8 µM) | 5 µg/mL (≈ 15.4 µM) | – |
| O=C(OCC(Cl)(Cl)Cl)N(C(=O)OCC(Cl)(Cl)Cl)c1onc2c1CCC2 | 10 µg/mL (≈ 21.1 µM) | 5 µg/mL (≈ 10.5 µM) | – |
| C=C(C)OC(=O)N(C(=O)OC(=C)C)c1onc2c1CCC2 | 10 µg/mL (≈ 34.2 µM) | 10 µg/mL (≈ 34.2 µM) | – |
| Nc1onc2c1CCC2 | – | – | MIC [4]: < 1 µg/mL; MIC [5]: < 1 µg/mL; MIC [6]: 7.5 µg/mL (≈ 60.4 µM); MIC [7]: 5 µg/mL (≈ 40.3 µM); MIC [8]: 5 µg/mL (≈ 40.3 µM); MIC [9]: < 1 µg/mL; LD50 [10]: < 300 mg/kg; half-life [11]: 4.04 days |
